From ChEMBL document CHEMBL5154882, “Discovery of 4-Hydroxyquinazoline Derivatives as Small Molecular BET/PARP1 Inhibitors That Induce Defective Homologous Recombination and Lead to Synthetic Lethality for Triple-Negative Breast Cancer Therapy” (J Med Chem, 2022)
Activity calls are given as the source filed them. The calls are words filed in the database; no cut-off is given here.

Legend:
[1] = tested on: MDA-MB-231; assay: Induction of DNA damage in human MDA-MB-231 cells assessed as increase in tail DNA at 1 uM measured after 3 days in presence of olaparib by comet assay; format: functional, cell-based; details: time 3.0 day
[2] = tested on: MDA-MB-468; assay: Induction of apoptosis in human MDA-MB-468 cells assessed as early apoptotic cells at 1 uM incubated for 72 hrs in presence of olaparib by annexin V/propidium iodide staining-based flow cytometry analysis (reference value: 4.07%); format: functional
[3] = tested on: MDA-MB-468; assay: Induction of DNA damage in human MDA-MB-468 cells assessed as up-regulation of gammaH2AX expression level at 1 uM in presence of olaparib by DAPI staining based immunofluorescence assay; format: functional, cell-based
[4] = tested on: MDA-MB-468; assay: Cell cycle arrest in human MDA-MB-468 cells assessed as accumulation at G0/G1 phase incubated for 72 hrs in presence of olaparib by propidium iodide staining-based flow cytometry analysis (reference value: 61.4%); format: functional
[5] = tested on: MDA-MB-468; assay: Induction of apoptosis in human MDA-MB-468 cells assessed as up-regulation of cleaved caspase 3 protein level incubated for 72 hrs in presence of olaparib by Western blot analysis; format: functional, cell-based
[6] = tested on: MDA-MB-468; assay: Synergistic antiproliferative activity against human MDA-MB-468 cells at compound to Olaparib ratio of 1:3; format: functional, cell-based
[7] = tested on: MDA-MB-468; assay: Induction of DNA damage in human MDA-MB-468 cells assessed as up-regulation of gammaH2AX expression level at 1 uM incubated for 60 mins by DAPI staining based immunofluorescence assay; format: functional, cell-based
[8] = tested on: MDA-MB-468; assay: Cell cycle arrest in human MDA-MB-468 cells assessed as accumulation at S phase incubated for 72 hrs in presence of olaparib by propidium iodide staining-based flow cytometry analysis (reference value: 21.1%); format: functional
[9] = tested on: MDA-MB-468; assay: Induction of apoptosis in human MDA-MB-468 cells assessed as downregulation of Bcl-2 protein level incubated for 72 hrs in presence of olaparib by Western blot analysis; format: functional, cell-based
[10] = tested on: MDA-MB-468; assay: Induction of apoptosis in human MDA-MB-468 cells assessed as late apoptotic cells at 1 uM incubated for 72 hrs in presence of olaparib by annexin V/propidium iodide staining-based flow cytometry analysis (reference value: 1.34%); format: functional
[11] = tested on: MDA-MB-468; assay: Cell cycle arrest in human MDA-MB-468 cells assessed as accumulation at S phase incubated for 72 hrs in presence of olaparib by propidium iodide staining-based flow cytometry analysis (Rvb=16.1%); format: functional
[12] = tested on: MDA-MB-468; assay: Induction of apoptosis in human MDA-MB-468 cells assessed as up-regulation of Bax protein level at incubated for 72 hrs in presence of olaparib by Western blot analysis; format: functional, cell-based
[13] = tested on: MDA-MB-231; assay: Induction of DNA damage in human MDA-MB-231 cells assessed as increase in tail DNA measured at 1 uM after 3 days by comet assay; format: functional, cell-based; details: time 3.0 day
[14] = tested on: MDA-MB-468; assay: Induction of DNA damage in human MDA-MB-468 cells assessed as up-regulation of gammaH2AX expression level at 3 uM by DAPI staining based immunofluorescence assay; format: functional, cell-based
[15] = tested on: MDA-MB-231; assay: Induction of DNA damage in human MDA-MB-231 cells assessed as increase in tail DNA measured at 3 uM after 3 days by comet assay; format: functional, cell-based; details: time 3.0 day
[16] = Toxicity in BALB/c nude mouse xenografted with human MDA-MB-468 cells assessed as morphological changes in spleen at 40 to 80 mg/kg, ig administered daily for 16 days measured every 3 days by hematoxyin-eosin staining based analysis; format: organism-based; details: in vivo, po, 384 h, dose 40-80 mg/kg, time 16 day
[17] = tested on: MDA-MB-231; assay: Antitumor activity against human MDA-MB-231 cells xenografted in BALB/c nude mouse assessed as reduction in CtIp expression at 80 mg/kg incubated for 30 to 40 mins by immunohistochemical analysis; format: functional, organism-based; details: time 30-40 min
[18] = Toxicity in BALB/c nude mouse xenografted with human MDA-MB-468 cells assessed as morphological changes in lung at 40 to 80 mg/kg, ig administered daily for 16 days measured every 3 days by hematoxyin-eosin staining based analysis; format: organism-based; details: in vivo, po, 384 h, dose 40-80 mg/kg, time 16 day
[19] = Toxicity in BALB/c nude mouse xenografted with human MDA-MB-468 cells assessed as morphological changes in liver at 40 to 80 mg/kg, ig administered daily for 16 days measured every 3 days by hematoxyin-eosin staining based analysis; format: organism-based; details: in vivo, po, 384 h, dose 40-80 mg/kg, time 16 day
[20] = Toxicity in BALB/c nude mouse xenografted with human MDA-MB-468 cells assessed as morphological changes in kidney at 40 to 80 mg/kg, ig administered daily for 16 days measured every 3 days by hematoxyin-eosin staining based analysis; format: organism-based; details: in vivo, po, 384 h, dose 40-80 mg/kg, time 16 day
[21] = Toxicity in BALB/c nude mouse xenografted with human MDA-MB-468 cells assessed as morphological changes in kidney at 80 mg/kg, ig administered daily for 16 days measured every 3 days by hematoxyin-eosin staining based analysis; format: organism-based; details: in vivo, po, 384 h, time 16 day
[22] = Toxicity in BALB/c nude mouse xenografted with human MDA-MB-468 cells assessed as morphological changes in heart at 40 to 80 mg/kg, ig administered daily for 16 days measured every 3 days by hematoxyin-eosin staining based analysis; format: organism-based; details: in vivo, po, 384 h, dose 40-80 mg/kg, time 16 day
[23] = Toxicity in BALB/c nude mouse xenografted with human MDA-MB-468 cells assessed as death at 40 to 80 mg/kg, ig administered daily for 16 days measured every 3 days; format: organism-based; details: in vivo, po, 384 h, dose 40-80 mg/kg, time 16 day
[24] = Toxicity in BALB/c nude mouse xenografted with human MDA-MB-468 cells assessed as death at 80 mg/kg, ig administered daily for 16 days measured every 3 days; format: organism-based; details: in vivo, po, 384 h, time 16 day
[25] = tested on: MDA-MB-231; assay: Antitumor activity against human MDA-MB-231 cells xenografted in BALB/c nude mouse assessed as tumor growth inhibition at 80 mg/kg incubated for 30 to 40 mins by Ki-67 staining based immunohistochemical analysis; format: functional, organism-based; details: time 30-40 min
[26] = tested on: MDA-MB-231; assay: Antitumor activity against human MDA-MB-231 cells xenografted in BALB/c nude mouse assessed as downregulation of c-Myc at 80 mg/kg by Western blot analysis; format: functional, organism-based
[27] = tested on: MDA-MB-231; assay: Antitumor activity against human MDA-MB-231 cells xenografted in BALB/c nude mouse assessed as reduction in c-Myc expression at 80 mg/kg incubated for 30 to 40 mins by immunohistochemical analysis; format: functional, organism-based; details: time 30-40 min
[28] = Toxicity in BALB/c nude mouse xenografted with human MDA-MB-468 cells assessed as change in body weight at 40 to 80 mg/kg, ig administered daily for 16 days measured every 3 days; format: organism-based; details: in vivo, po, 384 h, dose 40-80 mg/kg, time 16 day
[29] = Toxicity in BALB/c nude mouse xenografted with human MDA-MB-468 cells assessed as morphological changes in lung at 80 mg/kg, ig administered daily for 16 days measured every 3 days by hematoxyin-eosin staining based analysis; format: organism-based; details: in vivo, po, 384 h, time 16 day
[30] = tested on: MDA-MB-231; assay: Antitumor activity against human MDA-MB-231 cells xenografted in BALB/c nude mouse assessed as reduction in PAR expression at 80 mg/kg incubated for 30 to 40 mins by immunohistochemical analysis; format: functional, organism-based; details: time 30-40 min
[31] = Toxicity in BALB/c nude mouse xenografted with human MDA-MB-468 cells assessed as morphological changes in spleen at 80 mg/kg, ig administered daily for 16 days measured every 3 days by hematoxyin-eosin staining based analysis; format: organism-based; details: in vivo, po, 384 h, time 16 day
[32] = tested on: MDA-MB-231; assay: Antitumor activity against human MDA-MB-231 cells xenografted in BALB/c nude mouse assessed as downregulation of Rad51 at 80 mg/kg by Western blot analysis; format: functional, organism-based
[33] = Toxicity in BALB/c nude mouse xenografted with human MDA-MB-468 cells assessed as morphological changes in liver at 80 mg/kg, ig administered daily for 16 days measured every 3 days by hematoxyin-eosin staining based analysis; format: organism-based; details: in vivo, po, 384 h, time 16 day
[34] = tested on: MDA-MB-468; assay: Antiproliferative activity against human MDA-MB-468 cells assessed as reduction in cell viability incubated for 72 hrs by MTT assay; format: functional, cell-based; details: MDA-MB-468, 72 h
[35] = tested on: MDA-MB-468; assay: Antitumor activity against human MDA-MB-468 cells xenografted in BALB/c nude mouse model assessed as tumor growth inhibition at 80 mg/kg, ig administered daily for 16 days measured every 3 days relative to control; format: functional; details: MDA-MB-468, po, 384 h, time 16 day, read-out: TGI
[36] = Toxicity in BALB/c nude mouse xenografted with human MDA-MB-468 cells assessed as morphological changes in heart at 80 mg/kg, ig administered daily for 16 days measured every 3 days by hematoxyin-eosin staining based analysis; format: organism-based; details: in vivo, po, 384 h, time 16 day
[37] = molecular target: Bromodomain-containing protein 4 (Homo sapiens, UniProt O60885); assay: Inhibition of BRD4 (unknown origin) at 1 uM relative to control
[38] = molecular target: T1, Poly [ADP-ribose] polymerase 1 (Homo sapiens, UniProt P09874); assay: Inhibition of PARP1 (unknown origin) using NAD+ as substrate incubated for 60 mins by ELISA
T1 sequence (P09874 whole entry): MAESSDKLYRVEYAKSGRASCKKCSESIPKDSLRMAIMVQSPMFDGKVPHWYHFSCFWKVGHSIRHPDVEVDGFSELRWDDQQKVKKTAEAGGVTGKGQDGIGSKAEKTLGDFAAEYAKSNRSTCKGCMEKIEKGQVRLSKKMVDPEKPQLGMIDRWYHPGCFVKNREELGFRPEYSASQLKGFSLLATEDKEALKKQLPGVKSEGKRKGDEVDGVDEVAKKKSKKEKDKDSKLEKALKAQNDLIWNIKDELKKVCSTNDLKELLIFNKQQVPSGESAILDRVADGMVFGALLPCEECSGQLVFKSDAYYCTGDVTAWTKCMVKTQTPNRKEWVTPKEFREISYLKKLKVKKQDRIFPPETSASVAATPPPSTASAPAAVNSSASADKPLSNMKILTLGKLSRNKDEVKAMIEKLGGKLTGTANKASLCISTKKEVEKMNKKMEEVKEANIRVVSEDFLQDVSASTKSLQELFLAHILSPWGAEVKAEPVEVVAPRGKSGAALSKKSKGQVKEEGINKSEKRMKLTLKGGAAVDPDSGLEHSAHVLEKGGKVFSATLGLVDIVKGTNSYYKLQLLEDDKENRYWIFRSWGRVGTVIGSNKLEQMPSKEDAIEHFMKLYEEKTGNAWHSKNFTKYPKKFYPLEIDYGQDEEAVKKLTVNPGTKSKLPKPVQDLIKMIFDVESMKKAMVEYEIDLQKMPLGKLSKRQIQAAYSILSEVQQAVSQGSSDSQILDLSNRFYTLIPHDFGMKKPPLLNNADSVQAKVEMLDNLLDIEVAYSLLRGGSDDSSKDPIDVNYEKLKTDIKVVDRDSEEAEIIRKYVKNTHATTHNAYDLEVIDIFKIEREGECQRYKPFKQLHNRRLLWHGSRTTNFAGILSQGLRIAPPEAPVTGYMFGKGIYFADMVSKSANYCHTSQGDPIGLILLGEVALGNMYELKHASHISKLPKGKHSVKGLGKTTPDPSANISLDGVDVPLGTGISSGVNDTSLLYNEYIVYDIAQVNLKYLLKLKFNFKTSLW

[39] = tested on: MDA-MB-231; assay: Antiproliferative activity against human MDA-MB-231 cells assessed as reduction in cell viability incubated for 72 hrs by MTT assay; format: functional, cell-based; details: MDA-MB-231, 72 h
[40] = tested on: MDA-MB-231; assay: Antitumor activity against human MDA-MB-231 cells xenografted in BALB/c nude mouse assessed as downregulation of PAR at 80 mg/kg by Western blot analysis; format: functional, organism-based
[41] = Toxicity in BALB/c nude mouse xenografted with human MDA-MB-468 cells assessed as change in body weight at 80 mg/kg, ig administered daily for 16 days measured every 3 days; format: organism-based; details: in vivo, po, 384 h, time 16 day
[42] = tested on: MDA-MB-231; assay: Antitumor activity against human MDA-MB-231 cells xenografted in BALB/c nude mouse assessed as reduction in Rad51 expression at 80 mg/kg incubated for 30 to 40 mins by immunohistochemical analysis; format: functional, organism-based; details: time 30-40 min
[43] = tested on: MDA-MB-231; assay: Antitumor activity against human MDA-MB-231 cells xenografted in BALB/c nude mouse assessed as downregulation of CtIP at 80 mg/kg by Western blot analysis; format: functional, organism-based
[44] = molecular target: T1, Poly [ADP-ribose] polymerase 1; assay: Inhibition of PARP1 (unknown origin) at 1 uM relative to control

SMILES: Cc1sc2c(c1C)C(c1ccc(Cl)cc1)=NC(CC(=O)OC(C)(C)C)c1nnc(C)n1-2 (configuration not stated)
- Activity [1]: Active
- Activity [2]: 30.72%
- Activity [3]: Active
- Activity [4]: 58.9%
- Activity [5]: Active
- Activity [6]: Active
- Activity [7]: Active
- Activity [8]: 27.9%
- Activity [9]: Active
- Activity [10]: 7.3%
- Activity [11]: 12.8%
- Activity [12]: Active
- Activity [13]: Active

SMILES: O=C(c1cc(Cc2n[nH]c(=O)c3ccccc23)ccc1F)N1CCN(C(=O)C2CC2)CC1
- Activity [14]: Active
- Activity [15]: Active

SMILES: COc1cc(OC)c2c(=O)[nH]c(-c3cc(C)c(OCCOc4ccccc4C(N)=O)c(C)c3)nc2c1
- Activity [16]: Non-Toxic
- Activity [17]: Active
- Activity [18]: Non-Toxic
- Activity [19]: Non-Toxic
- Activity [20]: Non-Toxic
- Activity [21]: Non-Toxic
- Activity [22]: Non-Toxic
- Activity [23]: Non-Toxic
- Activity [24]: Non-Toxic
- Activity [25]: Active
- Activity [26]: Active
- Activity [27]: Active
- Activity [28]: Non-Toxic
- Activity [29]: Non-Toxic
- Activity [30]: Active
- Activity [31]: Non-Toxic
- Activity [32]: Active
- Activity [33]: Non-Toxic
- IC50 [34]: 6.42 µM
- inhibition in vivo at 80 mg/kg [35]: 62.5%
- Activity [36]: Non-Toxic
- inhibition [37]: 66.2%
- IC50 [38]: 0.0046 µM
- IC50 [39]: 15.6 µM
- Activity [40]: Active
- Activity [41]: Non-Toxic
- Activity [42]: Active
- Activity [43]: Active
- inhibition [44]: 35.9%

SMILES: Cc1cccc2nc(-c3ccc(Cc4n[nH]c(=O)c5ccccc45)cc3)[nH]c(=O)c12
- IC50 [34]: 24.1 µM
- inhibition [37]: 31.7%
- IC50 [39]: 28.9 µM
- inhibition [44]: 52.6%

SMILES: O=c1[nH]c(-c2ccc(Cc3n[nH]c(=O)c4ccccc34)cc2)nc2ccc(Br)cc12
- IC50 [34]: 18.8 µM
- inhibition [37]: 46%
- IC50 [39]: 24.5 µM
- inhibition [44]: 53.3%
